For orientation: EC50 means the concentration at which the effect is half-maximal.

The experiment has as its target human α7 nAChR (Homo sapiens (Human), UniProt P36544). Nature of the experiment: Automated patch-clamp electrophysiology functional assay (Assay A). The following applies: IonFlux HT whole-cell population patch, HEK cells expressing human α7/RIC-3, 40 μM acetylcholine. The experiment is classed as cell-based. The protocol:
The α7 nAChR positive allosteric modulator (PAM) activity of the present compounds may be tested using assays known in the art. The α7 nAChR PAMs described herein have activities in an automated patch-clamp electrophysiology functional assay as described in the examples. The assay was performed using the IonFlux HT in a whole-cell, population patch configuration. See Golden et al. Assay Drug Dev. Technol. (2011) 9:608-619. The compounds were assessed for their ability to modulate the function of the human α7 nAChR stably expressed in a HEK cell line both in the presence, and in the absence of the natural α7 agonist acetylcholine. By performing a series of such measurements at different concentrations, the effective concentration of the α7 nAChR PAMs (EC50) was determined. See Spencer et al. Assay Drug Dev. Technol. (2012) 10:313-324.
Direct activation of α7 (agonism), and potentiation of acetylcholine-evoked α7 currents was determined as follows:
Automated Patch-Clamp Electrophysiology Functional Assay (Assay A)
Automated patch-clamp electrophysiology was performed using the IonFluxHT (Fluxion Biosciences Inc., San Francisco, CA) in the whole-cell, population patch configuration. Test compounds were assessed for their ability to modulate the function of the α7 nicotinic acetylcholine receptor both in the presence, and in the absence of the natural α7 agonist acetylcholine. A HEK cell line stably expressing both human RIC-3 and human α7 (PrecisION hnAChR α7/RIC-3, Eurofins Pharma, St. Charles, MO) was cultured in 175 cm^2 triple-layer tissue culture flasks to no more than 90% confluency in DMEM/F-12 growth media supplemented with 10% heat-inactivated fetal bovine serum, 1% non-essential amino acids, 0.625 μg/mL Puromycin, and 400 μg/mL Geneticin. Immediately prior to assay, cells were detached by first aspirating growth media, rinsing with Dulbecco's phosphate buffered saline, and then adding 10 mL of Accutase (Innovative Cell Technologies, San Diego, CA) to the flask and then incubating at 37° C. for 5 minutes. Detached cells were then recovered by the addition of 40 mL of CHO-serum-free media supplemented with 25 mM HEPES, and rocked gently in a 50 mL conical tube for 20 minutes prior to patch-clamp assay. After recovery, cells were pelleted by centrifugation at 1,000 RPM for 1 minute in a compact bench top centrifuge; recovery media was aspirated and cells were resuspended in external recording solution (150 mM NaCl, 5 mM KCl, 2 mM CaCl2), 1 mM MgCl2, 10 mM HEPES, 12 mM dextrose) to a density of 5.0×10^6 cells/mL. The cell suspension was added to the cell inlet wells on an IonFlux HT population patch plate which had previously been rinsed and primed with deionized H2O. Test compounds were serially diluted in DMSO and then resuspended to the final test concentration in external recording solution, with, or without 40 μM acetylcholine added to the external recording solution; test compounds were then transferred to the IonFlux HT population patch plate. Internal recording solution (110 mM TrisPO4, 28 mM TrisBase, 0.1 mM CaCl2), 2 mM MgCl2, 11 mM EGTA, 4 mM MgATP) was added to the internal recording solution inlet wells on the IonFlux HT patch plate previously loaded with cells and test compounds, and the plate loaded into the IonFlux HT instrument. A protocol was executed on the IonFlux HT to trap the cells, break into the cells, and establish the whole-cell recording configuration; cells were voltage-clamped at a holding potential of −60 mV for the duration of the experiment, all experiments were conducted at room temperature, and the IonFlux HT injection pressure was 8 psi for solution applications. Upon establishing the whole-cell configuration, external recording solution was perfused into the recording chambers for 120 seconds and then 40 μM acetylcholine was applied for 1 second and immediately washed off with external recording solution for 60 seconds. […]
(Patch clamp records ionic current or voltage across a cell membrane.)

Chain of human α7 nAChR (P36544 23-502): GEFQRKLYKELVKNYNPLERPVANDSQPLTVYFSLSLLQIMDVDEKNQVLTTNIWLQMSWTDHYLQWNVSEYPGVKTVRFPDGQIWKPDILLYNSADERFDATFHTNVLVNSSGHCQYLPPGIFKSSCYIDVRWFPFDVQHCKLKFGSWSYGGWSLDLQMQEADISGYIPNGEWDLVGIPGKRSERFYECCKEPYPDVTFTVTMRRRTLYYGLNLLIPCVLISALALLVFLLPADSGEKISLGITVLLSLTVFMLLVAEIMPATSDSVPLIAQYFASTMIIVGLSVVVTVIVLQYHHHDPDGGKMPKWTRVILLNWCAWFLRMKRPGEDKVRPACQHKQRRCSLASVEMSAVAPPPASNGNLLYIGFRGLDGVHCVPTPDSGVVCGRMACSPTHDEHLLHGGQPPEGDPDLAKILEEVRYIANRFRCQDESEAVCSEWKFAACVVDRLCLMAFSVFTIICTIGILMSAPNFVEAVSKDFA

As for `O=C(NCc1ccc(F)cc1F)C1C2Oc3ccc(F)cc3C21` (stereo not drawn) [Example C23, exo-N-[(2,4-difluorophenyl)methyl]-5-fluoro-1a,6b-dihydro-H-cyclopropa[b][1]benzofuran-1-carboxamide], the EC50 runs as follows: (electrophysiology EC50 values) 2300 nM; (potency class) 500 to 5000 nM.

As for `Cc1cc(F)cc(CNC(=O)C2C3Oc4ccc(F)cc4C32)c1` (stereo not drawn) [Example C24, exo-5-fluoro-N-[(3-fluoro-5-methylphenyl)methyl]-1a,6b-dihydro-1H-cyclopropa[b][1]benzofuran-1-carboxamide], the EC50 (electrophysiology EC50 values) came out at 950 nM and the EC50 (potency class) was in the range of 500 to 5000 nM. Take `O=C(NC(c1ccccc1)c1ccncc1)[C@@H]1[C@H]2Oc3ccc(F)cc3[C@H]21` (stereo partly drawn) [Example C39, 4-{[(exo-5-fluoro-1a,6b-dihydro-1H-cyclopropa[b][1]benzofuran-1-carbonyl)amino](phenyl)methyl}pyridine]: where the note is “potency class”, the EC50 fell in the range of 500 to 5000 nM.

With `O=C(N[C@H]1CCOc2cc(F)c(F)cc21)C1C2COc3ccccc3C21` (stereo partly drawn) [Example A19, exo-N-[(4S)-6,7-difluoro-3,4-dihydro-2H-1-benzopyran-4-yl]-1,1a,2,7b-tetrahydrocyclopropa[c][1]benzopyran-1-carboxamide], the EC50 reads like this: (electrophysiology EC50 values) 1600 nM; (potency class) 500 to 5000 nM.

Regarding `CCOc1ccc([C@H](COC)NC(=O)C2C3Oc4cccc(Br)c4C32)cc1` (stereo partly drawn) [Example B19, exo-6-bromo-N-[(1R)-1-(4-ethoxyphenyl)-2-methoxyethyl]-1a,6b-dihydro-1H-cyclopropa[b][1]benzofuran-1-carboxamide], the EC50 by setting is: (electrophysiology EC50 values) 72 nM; (potency class) no more than 100 nM. In the same order, the values of `CCOc1ccc([C@H](COC)NC(=O)C2C3Oc4ccc(-c5cn(Cc6ccccc6)nn5)cc4C32)cc1` (single isomer, unassigned) [Example 6] are 1100 nM and 500 to 5000 nM. The like results for `C[C@H](NC(=O)C1C2Oc3ccc(F)cc3C21)c1cccc2ncccc12` (stereo partly drawn) [Example C36, 5-{(1S)-1-[(exo-5-fluoro-1a,6b-dihydro-1H-cyclopropa[b][1]benzofuran-1-carbonyl)amino]ethyl}quinoline] were, in that order, 1300 nM and 500 to 5000 nM.

As for `COc1cc2c(cc1OC)[C@@H](NC(=O)C1C3Oc4ccc(F)cc4C31)COC2` (stereo partly drawn) [Example C4, exo-N-[(4R)-6,7-dimethoxy-3,4-dihydro-1H-2-benzopyran-4-yl]-5-fluoro-1a,6b-dihydro-11H-cyclopropa[b][1]benzofuran-1-carboxamide], the EC50 (potency class) fell in the range of 5000 to 50000 nM.

In the case of `O=C(NCc1ccc2cnccc2c1)C1C2Oc3ccc(F)cc3C21` (stereo not drawn) [Example C38, 6-{[(exo-5-fluoro-1a,6b-dihydro-1H-cyclopropa[b][1]benzofuran-1-carbonyl)amino]methyl}isoquinoline], the concentration giving a half-maximal response (EC50) was 4700 nM (electrophysiology EC50 values) and 500 to 5000 nM (potency class). The like results for `CCOc1ccc([C@H](COC)NC(=O)C2C3Oc4cccc(Br)c4C32)cc1` (stereo partly drawn) [Example B18, exo-6-bromo-N-[(1R)-1-(4-ethoxyphenyl)-2-methoxyethyl]-1a,6b-dihydro-1H-cyclopropa[b][1]benzofuran-1-carboxamide] were, in that order, 1000 nM and 500 to 5000 nM. Take `CCC(NC(=O)C1C2Oc3ccc(F)cc3C21)c1ccccn1` (stereo not drawn) [Example C16, 2-{1-[(exo-5-fluoro-1a,6b-dihydro-1H-cyclopropa[b][1]benzofuran-1-carbonyl)amino]propyl}pyridine]: the 50% effective concentration (EC50) (potency class) is 500 to 5000 nM. Regarding `CCOc1ccc([C@H](CO)NC(=O)C2C3COc4ccc(F)cc4C32)cn1` (stereo partly drawn) [Example A3, exo-N-[(1R)-1-(6-ethoxypyridin-3-yl)-2-hydroxyethyl]-6-fluoro-1,1a,2,7b-tetrahydrocyclopropa[c][1]benzopyran-1-carboxamide], the EC50 was 2200 nM (electrophysiology EC50 values) and 500 to 5000 nM (potency class). In the same order, the values of `CCOc1ccc([C@H](COC)NC(=O)C2C3Cc4ccccc4C32)cc1` (single isomer, unassigned) [Example 2] are 72 nM and no more than 100 nM. In the same order, the values of `O=C(NCc1ccc(O)cc1)C1C2Oc3ccc(F)cc3C21` (stereo not drawn) [Example C26, exo-5-fluoro-N-[(4-hydroxyphenyl)methyl]-1a,6b-dihydro-1H-cyclopropa[b][1]benzofuran-1-carboxamide] are 680 nM and 500 to 5000 nM. The like results for `O=C(NCc1cc(Cl)ccc1F)C1C2Oc3ccc(F)cc3C21` (stereo not drawn) [Example C14, exo-N-[(5-chloro-2-fluorophenyl)methyl]-5-fluoro-1a,6b-dihydro-1H-cyclopropa[b][1]benzofuran-1-carboxamide] were, in that order, 810 nM and 500 to 5000 nM. `Cc1ccccc1CNC(=O)C1C2Oc3ccc(F)cc3C21` (stereo not drawn) [Example C31, exo-5-fluoro-N-[(2-methylphenyl)methyl]-1a,6b-dihydro-1H-cyclopropa[b][1]benzofuran-1-carboxamide]: the EC50 (electrophysiology EC50 values) is 1800 nM and the EC50 (potency class) is 500 to 5000 nM. In the same order, the values of `O=C(N[C@@H](C(F)F)C1CCCCC1)C1C2COc3ccc(F)cc3C21` (stereo partly drawn) [Example A7, exo-N-[(1R)-1-cyclohexyl-2,2-difluoroethyl]-6-fluoro-1,1a2,7b-tetrahydrocyclopropa[c][1]benzopyran-1-carboxamide] are 800 nM and 500 to 5000 nM.

Take `O=C(NCc1cccc(-c2ncco2)c1)C1C2Oc3ccc(F)cc3C21` (stereo not drawn) [Example C35, exo-5-fluoro-N-{[3-(1,3-oxazol-2-yl)phenyl]methyl}-1a,6b-dihydro-1H-cyclopropa[b][1]benzofuran-1-carboxamide]: the EC50 is 2400 nM (electrophysiology EC50 values) and 500 to 5000 nM (potency class). In the case of `O=C(NCc1nc(Br)no1)C1C2Oc3ccc(F)cc3C21` (stereo not drawn) [Example C41, exo-N-[(3-bromo-1,2,4-oxadiazol-5-yl)methyl]-5-fluoro-1a,6b-dihydro-1H-cyclopropa[b][1]benzofuran-1-carboxamide], for the setting “potency class”, the EC50 was 500 to 5000 nM. Same read-out and setting: as for `COc1ccc(-c2cc(CNC(=O)C3C4Oc5ccc(F)cc5C43)on2)cc1` (stereo not drawn) [Example C44, exo-5-fluoro-N-{[3-(4-methoxyphenyl)-1,2-oxazol-5-yl]methyl}-1a,6b-dihydro-1H-cyclopropa[b][1]benzofuran-1-carboxamide], the figure is 5000 to 50000 nM. Turning to `CCOc1ccc([C@H](COC)NC(=O)C2C3c4ccccc4N(C(C)=O)C23)cc1` (stereo partly drawn) [Example B12, exo-2-acetyl-N-[(1R)-1-(4-ethoxyphenyl)-2-methoxyethyl]-1,1a,2,6b-tetrahydrocyclopropa[b]indole-1-carboxamide], the EC50 (electrophysiology EC50 values) worked out at 1300 nM and the EC50 (potency class) lay in the range of 500 to 5000 nM. Take `CCOc1ccc([C@H](COC)NC(=O)C2C3Oc4ccc(C#N)cc4C32)cc1` (stereo partly drawn) [Example B16, exo-5-cyano-N-[(1R)-1-(4-ethoxyphenyl)-2-methoxyethyl]-1a,6b-dihydro-1H-cyclopropa[b][1]benzofuran-1-carboxamide]: the EC50 (electrophysiology EC50 values) came out at 4100 nM. Consider `O=C(NC1(c2ccccc2)CCC1)C1C2COc3ccc(F)cc3C21` (stereo not drawn) [Example A8, exo-6-fluoro-N-(1-phenylcyclobutyl)-1,1a,2,7b-tetrahydrocyclopropa[c][1]benzopyran-1-carboxamide], for which the 50% effective concentration (EC50) was 1000 nM (electrophysiology EC50 values) and 500 to 5000 nM (potency class). The like results for `COc1ccc2c(c1)OCC2NC(=O)C1C2Oc3ccc(F)cc3C21` (stereo not drawn) [Example C8, exo-5-fluoro-N-(6-methoxy-2,3-dihydro-1-benzofuran-3-yl)-1a,6b-dihydro-1H-cyclopropa[b][1]benzofuran-1-carboxamide] were, in that order, 810 nM and 500 to 5000 nM.

(Values after patent publication US20240368109A1, “ALLOSTERIC MODULATORS OF NICOTINIC ACETYLCHOLINE RECEPTORS” (MERCK SHARP & DOHME LLC, priority 2021, published 2024).)
